One block for each molecule: values may come before it.
How the values were obtained:
[1] = system: ARHGEF2 Ser^151 phosphorylation; test: Western blot of ARHGEF2 Ser^151 phosphorylation in treated HEK293T cells; assay type: cell-based; settings: 1mM for 6 hours, normalized with total ARHGEF2, three independent experiments
ARHGEF2 = settings: cited from earlier work; for effect on ARHGEF2 release from microtubules and RHOA activation: disruption of polymerized microtubules; for effect on ARHGEF2 activation: GPCR ligands
14-3-3 = molecular target: T1, 14-3-3 (Mus musculus, UniProt P63101); test: Microscale thermophoresis; assay type: binding, murine; settings: MST; peptides at 100 nM; GST-14-3-3 serial dilutions 195 μM to 2 nM; 20 mM HEPES pH 7.4, 150 mM NaCl, 1 mM DTT, 0.05 % Tween20; three independent experiments
T1 sequence (P63101 1-245): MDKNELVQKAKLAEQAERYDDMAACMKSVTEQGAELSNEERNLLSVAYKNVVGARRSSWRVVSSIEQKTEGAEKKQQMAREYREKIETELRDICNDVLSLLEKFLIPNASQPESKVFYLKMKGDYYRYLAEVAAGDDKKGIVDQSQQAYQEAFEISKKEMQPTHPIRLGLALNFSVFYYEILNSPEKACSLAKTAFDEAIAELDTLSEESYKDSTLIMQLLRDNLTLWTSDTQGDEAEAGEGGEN

Molecule: NC(=O)c1ncn([C@@H]2O[C@H](COP(=O)(O)O)[C@@H](O)[C@H]2O)c1N [5-Aminoimidazole-4-carboxamide ribonucleotide]
ARHGEF2 Ser^151 phosphorylation [1]: no apparent change in phosphorylation of this residue was observed

Molecule: COc1cc2c(c(OC)c1OC)-c1ccc(OC)c(=O)cc1[C@@H](NC(C)=O)CC2 [Colchicine]
effect on ARHGEF2 release from microtubules and RHOA activation (ARHGEF2): release ARHGEF2 and lead to potent activation of RHOA

Molecule: COC(=O)Nc1nc2ccc(C(=O)c3cccs3)cc2[nH]1 [Nocodazol]
effect on ARHGEF2 release from microtubules and RHOA activation (ARHGEF2): release ARHGEF2 and lead to potent activation of RHOA

Molecule: CC(=O)O[C@H]1C(=O)[C@@]2(C)[C@H]([C@H](OC(=O)c3ccccc3)[C@]3(O)C[C@H](OC(=O)[C@H](O)[C@@H](NC(=O)c4ccccc4)c4ccccc4)C(C)=C1C3(C)C)[C@]1(OC(C)=O)CO[C@@H]1C[C@@H]2O [Paclitaxel]
effect on ARHGEF2 release from microtubules and RHOA activation (ARHGEF2): an effect that can be reversed by the microtubule stabilizing drug Paclitaxel

binding to 14-3-3 (in words) (14-3-3): no binding was detected
Molecule: RRPLDPRRR[(p)Ser885]LPAGDA[Lys(FITC)]

binding to 14-3-3 (in words) (14-3-3): no binding was detected
Molecule: SSLSLAKSV[(p)Ser^151]TTNIAG[Lys(FITC)]

Molecule: lysophosphatidic acid
effect on ARHGEF2 activation (ARHGEF2): trigger activation of ARHGEF2

Molecule: thrombin
effect on ARHGEF2 activation (ARHGEF2): trigger activation of ARHGEF2

From publication PMC6504561 (Science signaling, 2017)
